Columns and labels:
HCT-116 = experiment: Inhibition of colony formation in human HCT-116 cells at […] preincubated with compound for 1 hr followed by exposure to 2 Gy gamma irradiation and measured after 7 days by crystal violet staining based chemiluminescence assay relative to control; assay type: functional; settings: HCT-116, light or radiation study, dose 0.25 µM, time 169 hrs
[1] = biological target: DNA-dependent protein kinase catalytic subunit (Homo sapiens, UniProt P78527)
Description: Inhibition of human DNA-PK incubated for 30 mins in presence of Mg/ATP by HTRF method

in vitro = settings: human, liver microsomes

DNA-dependent protein kinase catalytic subunit, sequence (P78527 whole entry): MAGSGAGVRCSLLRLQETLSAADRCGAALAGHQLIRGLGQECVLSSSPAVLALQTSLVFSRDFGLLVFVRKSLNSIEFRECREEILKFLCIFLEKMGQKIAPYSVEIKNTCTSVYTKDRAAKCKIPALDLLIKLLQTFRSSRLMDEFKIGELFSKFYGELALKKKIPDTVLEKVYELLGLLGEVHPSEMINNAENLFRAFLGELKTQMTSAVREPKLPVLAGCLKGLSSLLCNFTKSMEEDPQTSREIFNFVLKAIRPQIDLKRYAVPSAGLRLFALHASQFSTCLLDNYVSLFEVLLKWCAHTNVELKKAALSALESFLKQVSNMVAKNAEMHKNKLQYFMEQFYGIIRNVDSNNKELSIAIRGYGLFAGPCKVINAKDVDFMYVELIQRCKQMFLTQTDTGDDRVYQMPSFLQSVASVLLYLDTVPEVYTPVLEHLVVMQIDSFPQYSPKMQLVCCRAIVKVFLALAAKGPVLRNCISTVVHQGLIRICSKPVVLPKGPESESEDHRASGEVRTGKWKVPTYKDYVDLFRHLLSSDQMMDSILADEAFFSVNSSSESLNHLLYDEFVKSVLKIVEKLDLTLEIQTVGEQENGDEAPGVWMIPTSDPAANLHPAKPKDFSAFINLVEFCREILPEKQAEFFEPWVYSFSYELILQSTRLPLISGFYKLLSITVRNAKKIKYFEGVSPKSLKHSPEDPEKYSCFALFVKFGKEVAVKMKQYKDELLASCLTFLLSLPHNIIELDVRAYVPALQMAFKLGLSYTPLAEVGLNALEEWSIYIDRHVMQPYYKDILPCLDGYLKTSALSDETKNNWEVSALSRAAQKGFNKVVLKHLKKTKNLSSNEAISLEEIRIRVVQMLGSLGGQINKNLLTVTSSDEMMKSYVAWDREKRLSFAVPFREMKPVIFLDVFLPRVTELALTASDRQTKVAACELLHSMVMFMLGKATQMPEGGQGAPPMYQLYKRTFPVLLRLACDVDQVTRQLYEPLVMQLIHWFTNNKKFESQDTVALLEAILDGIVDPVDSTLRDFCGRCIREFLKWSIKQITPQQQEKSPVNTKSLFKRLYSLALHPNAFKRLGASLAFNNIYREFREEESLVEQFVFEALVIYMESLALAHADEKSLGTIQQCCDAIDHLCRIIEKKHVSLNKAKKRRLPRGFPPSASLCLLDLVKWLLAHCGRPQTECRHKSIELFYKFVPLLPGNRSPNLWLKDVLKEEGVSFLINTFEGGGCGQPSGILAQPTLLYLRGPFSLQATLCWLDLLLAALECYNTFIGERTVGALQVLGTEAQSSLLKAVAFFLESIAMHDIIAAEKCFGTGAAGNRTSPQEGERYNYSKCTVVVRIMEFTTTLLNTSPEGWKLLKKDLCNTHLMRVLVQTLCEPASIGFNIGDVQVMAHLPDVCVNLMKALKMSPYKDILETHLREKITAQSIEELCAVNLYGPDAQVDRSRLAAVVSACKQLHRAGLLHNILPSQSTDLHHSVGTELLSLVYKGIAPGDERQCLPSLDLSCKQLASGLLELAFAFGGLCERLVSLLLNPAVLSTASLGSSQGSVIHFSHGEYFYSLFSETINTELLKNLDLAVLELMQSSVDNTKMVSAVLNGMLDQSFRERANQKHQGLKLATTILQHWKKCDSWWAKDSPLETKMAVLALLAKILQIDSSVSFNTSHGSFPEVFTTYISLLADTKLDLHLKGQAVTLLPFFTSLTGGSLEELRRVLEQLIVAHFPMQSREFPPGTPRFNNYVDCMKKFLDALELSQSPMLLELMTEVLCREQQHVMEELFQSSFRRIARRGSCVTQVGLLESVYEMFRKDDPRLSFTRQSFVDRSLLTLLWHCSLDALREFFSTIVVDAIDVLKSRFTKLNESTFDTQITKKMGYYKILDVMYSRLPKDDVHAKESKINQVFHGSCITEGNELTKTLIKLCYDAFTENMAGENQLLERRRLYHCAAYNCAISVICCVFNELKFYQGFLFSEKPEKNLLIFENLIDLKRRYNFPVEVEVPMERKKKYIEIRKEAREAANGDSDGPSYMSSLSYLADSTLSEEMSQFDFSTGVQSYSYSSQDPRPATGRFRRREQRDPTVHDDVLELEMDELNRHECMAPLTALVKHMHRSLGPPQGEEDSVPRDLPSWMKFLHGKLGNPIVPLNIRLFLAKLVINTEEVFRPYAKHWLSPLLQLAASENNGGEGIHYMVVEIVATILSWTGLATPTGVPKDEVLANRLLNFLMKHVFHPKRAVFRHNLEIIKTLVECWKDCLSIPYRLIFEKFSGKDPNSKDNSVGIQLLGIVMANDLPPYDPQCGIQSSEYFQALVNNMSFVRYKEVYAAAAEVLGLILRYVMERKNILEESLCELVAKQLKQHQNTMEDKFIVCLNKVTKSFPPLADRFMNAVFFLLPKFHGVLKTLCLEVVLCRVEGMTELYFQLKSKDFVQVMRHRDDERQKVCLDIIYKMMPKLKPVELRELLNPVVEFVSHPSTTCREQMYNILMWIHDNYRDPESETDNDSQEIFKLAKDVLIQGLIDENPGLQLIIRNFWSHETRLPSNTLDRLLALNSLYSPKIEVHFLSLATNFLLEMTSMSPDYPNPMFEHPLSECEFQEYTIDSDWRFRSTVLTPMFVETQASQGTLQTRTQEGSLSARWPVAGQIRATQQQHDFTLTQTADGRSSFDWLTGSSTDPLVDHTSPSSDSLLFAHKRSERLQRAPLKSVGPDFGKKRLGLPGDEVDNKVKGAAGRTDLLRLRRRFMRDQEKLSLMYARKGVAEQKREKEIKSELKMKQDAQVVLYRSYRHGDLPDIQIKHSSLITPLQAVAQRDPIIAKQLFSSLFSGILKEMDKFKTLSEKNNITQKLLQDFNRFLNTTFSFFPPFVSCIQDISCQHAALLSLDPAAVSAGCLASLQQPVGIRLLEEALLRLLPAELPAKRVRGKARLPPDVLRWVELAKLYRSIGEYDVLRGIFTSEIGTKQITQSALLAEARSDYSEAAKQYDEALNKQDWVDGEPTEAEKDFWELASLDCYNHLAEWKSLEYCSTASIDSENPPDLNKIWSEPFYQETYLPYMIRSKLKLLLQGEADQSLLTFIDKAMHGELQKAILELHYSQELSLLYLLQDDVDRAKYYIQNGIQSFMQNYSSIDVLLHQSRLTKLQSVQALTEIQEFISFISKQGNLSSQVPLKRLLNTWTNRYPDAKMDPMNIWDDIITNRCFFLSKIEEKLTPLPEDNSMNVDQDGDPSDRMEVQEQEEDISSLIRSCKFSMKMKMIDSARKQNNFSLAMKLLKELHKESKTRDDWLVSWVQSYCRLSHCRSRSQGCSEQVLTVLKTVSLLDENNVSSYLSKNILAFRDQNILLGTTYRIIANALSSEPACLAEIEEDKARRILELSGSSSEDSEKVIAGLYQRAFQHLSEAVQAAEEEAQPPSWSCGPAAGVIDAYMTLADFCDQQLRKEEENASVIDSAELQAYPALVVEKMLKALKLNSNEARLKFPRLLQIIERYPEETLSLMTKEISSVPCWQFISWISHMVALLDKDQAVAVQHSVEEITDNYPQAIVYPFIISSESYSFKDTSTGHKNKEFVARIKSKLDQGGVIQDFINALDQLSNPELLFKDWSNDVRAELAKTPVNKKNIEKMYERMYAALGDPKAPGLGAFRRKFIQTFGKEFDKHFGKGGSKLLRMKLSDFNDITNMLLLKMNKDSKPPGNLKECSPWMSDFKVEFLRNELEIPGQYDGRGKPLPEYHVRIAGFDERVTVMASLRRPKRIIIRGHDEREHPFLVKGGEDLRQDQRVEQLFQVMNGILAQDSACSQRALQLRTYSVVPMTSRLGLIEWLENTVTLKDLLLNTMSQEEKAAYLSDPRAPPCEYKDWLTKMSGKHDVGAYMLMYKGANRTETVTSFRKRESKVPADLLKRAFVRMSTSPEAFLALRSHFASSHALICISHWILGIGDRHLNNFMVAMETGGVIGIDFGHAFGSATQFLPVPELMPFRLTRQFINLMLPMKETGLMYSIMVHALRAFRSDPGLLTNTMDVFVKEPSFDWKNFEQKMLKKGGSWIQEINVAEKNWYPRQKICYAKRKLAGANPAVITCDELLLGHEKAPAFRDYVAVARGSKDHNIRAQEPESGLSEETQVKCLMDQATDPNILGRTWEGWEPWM

Row | SMILES | IC50 [1] [nM] | half-life at 5 min, 1 µM (in vitro) [h] | inhibition at […] (HCT-116) [%]
1 | Cc1nc(-c2cn[nH]c2)ccc1Nc1ncc2c(n1)n(C1CCOCC1)c(=O)n2C | 25 | 1.2 | 27.7
2 | Cc1cc(-c2cncnc2)ncc1Nc1ncc2c(n1)n(C1CCOCC1)c(=O)n2C |  |  | 22.9
3 | Cc1cc(-c2cn(C)nc2C(F)(F)F)ncc1Nc1ncc2c(n1)n(C1CCOCC1)c(=O)n2C | 4 | 1.99 | 63.9
4 | Cc1cc(-c2c(C)noc2C)ncc1Nc1ncc2c(n1)n(C1CCOCC1)c(=O)n2C |  |  | 25
5 | Cn1c(=O)n(C2CCOCC2)c2nc(N3CCc4cc(C(F)(F)F)ccc43)ncc21 |  |  | 41
6 | Cc1cc(-c2cnn(C)c2)ncc1Nc1ncc2c(n1)n(C1CC1)c(=O)n2C |  |  | 53.1
7 | Cc1cc(-c2cnn(C)c2C)ncc1Nc1ncc2c(n1)n(C1CCOCC1)c(=O)n2C |  |  | 28
8 | Cc1nc(-c2ccnn2C)ccc1Nc1ncc2c(n1)n(C1CCOCC1)c(=O)n2C | 9.6 |  | 
9 | Cn1c(=O)n(C2CCOCC2)c2nc(N3CCc4cc(S(C)(=O)=O)ccc43)ncc21 |  |  | 5.8
10 | Cc1cc(-c2ccnn2C)ncc1Nc1ncc2c(n1)n(C1CCOCC1)c(=O)n2C | 8 | 14.4 | 95
11 | Cc1nc(-c2cnn(C)c2)ncc1Nc1ncc2c(n1)n(C1CCOCC1)c(=O)n2C |  |  | 63.2
12 | Cn1c(=O)n(C2CCOCC2)c2nc(N3CCc4ccc([N+](=O)[O-])cc43)ncc21 |  |  | 12.5
13 | COc1cc(-c2cc(C)c(Nc3ncc4c(n3)n(C3CCOCC3)c(=O)n4C)cn2)cc(OC)c1OC |  |  | -11.4
14 | Cc1cc(-c2c(C)nn(C)c2C)ncc1Nc1ncc2c(n1)n(C1CCOCC1)c(=O)n2C |  |  | 22.9
15 | Cn1c(=O)n(C2CCOCC2)c2nc(N3CCc4cc(F)c(F)cc43)ncc21 |  |  | 8.2
16 | Cc1cc(-c2cnn(C)c2)cnc1Nc1ncc2c(n1)n(C1CCOCC1)c(=O)n2C |  |  | -0.2
17 | COc1cc2c(cc1OC)N(c1ncc3c(n1)n(C1CCOCC1)c(=O)n3C)CC2 |  |  | 89.8
18 | Cc1nc(-c2cnn(C)c2)ccc1Nc1ncc2c(n1)n(C1CCOCC1)c(=O)n2C |  |  | 23.3
19 | Cc1cc(-c2cnn(C)c2)ncc1Nc1ncc2c(n1)n(C1CCN(C(=O)C3CC3(F)F)CC1)c(=O)n2C (stereo not given) | 12 |  | 47.3

Row | SMILES | IC50 [1] [nM] | half-life at 5 min, 1 µM (in vitro) [h] | inhibition at […] (HCT-116) [%]
20 | Cc1cc(-c2cnoc2)ncc1Nc1ncc2c(n1)n(C1CCOCC1)c(=O)n2C |  |  | 32.8
21 | Cc1cc(-c2cnn(C)c2)ncc1Nc1ncc2c(n1)n(C1CCN(S(C)(=O)=O)CC1)c(=O)n2C | 1 |  | 30.4
22 | COc1ccc(-c2ccc(Nc3ncc4c(n3)n(C3CCOCC3)c(=O)n4C)c(C)n2)cc1OC |  |  | 28.3
23 | Cn1c(=O)n(C2CCOCC2)c2nc(Nc3ccc(-c4ccc5c(c4)OCO5)nc3)ncc21 |  |  | 85.8
24 | Cc1cc(-c2ccoc2)ncc1Nc1ncc2c(n1)n(C1CCOCC1)c(=O)n2C |  | 0.213 | 99.8
25 | Cc1cc(-c2cnn(C)c2)ccc1Nc1ncc2c(n1)n(C1CCOCC1)c(=O)n2C |  |  | 58.5
26 | Cn1cc(-c2ccc3c(c2)CCN3c2ncc3c(n2)n(C2CCOCC2)c(=O)n3C)cn1 | 8 | 2.51 | 97.6
27 | Cc1cc(-c2cnn(C)c2)ncc1Nc1ncc2c(n1)n([C@H]1CCOC1)c(=O)n2C | 6 | 28.9 | 90.7
28 | Cc1cc(-c2cccc(S(C)(=O)=O)c2)ncc1Nc1ncc2c(n1)n(C1CCOCC1)c(=O)n2C |  |  | 19.3
29 | Cc1cc(-c2cnn(C)c2)ncc1Nc1ncc2c(n1)n(C1CCN(S(=O)(=O)C3CC3)CC1)c(=O)n2C | 2 | 3.04 | 84.9
30 | Cc1cc(-c2ccc3c(c2)OCCO3)ncc1Nc1ncc2c(n1)n(C1CCOCC1)c(=O)n2C |  |  | 60
31 | Cc1cc(-c2cnn(C3CC3)c2)ncc1Nc1ncc2c(n1)n(C1CCOCC1)c(=O)n2C |  |  | 63.3
32 | COc1ncc(-c2cc(C)c(Nc3ncc4c(n3)n(C3CCOCC3)c(=O)n4C)cn2)cn1 |  |  | 34
33 | Cc1cc(-c2cccnc2)ncc1Nc1ncc2c(n1)n(C1CCOCC1)c(=O)n2C |  |  | 97.4
34 | Cc1cc(-c2cnn(C)c2)ncc1Nc1ncc2c(n1)n(C1CCN(C(=O)[C@@H]3C[C@H]3F)CC1)c(=O)n2C |  |  | 28.3
35 | Cc1cc(-c2ccco2)ncc1Nc1ncc2c(n1)n(C1CCOCC1)c(=O)n2C |  |  | 99.7
36 | Cc1cc(-c2cnn(C)c2)ncc1Nc1ncc2c(n1)n(CC1CCOCC1)c(=O)n2C |  |  | 42.8
37 | Cc1cc(-c2cnn(C(C)C)c2)ncc1Nc1ncc2c(n1)n(C1CCOCC1)c(=O)n2C |  |  | 12.6
38 | CC(=O)N1CCC(n2c(=O)n(C)c3cnc(Nc4cnc(-c5cnn(C)c5)cc4C)nc32)CC1 | 1 |  | 14.7

The next lines start with results.

Row | IC50 [1] [nM] | half-life at 5 min, 1 µM (in vitro) [h] | SMILES | inhibition at […] (HCT-116) [%]
39 | 1 |  | CC(=O)c1ccc2c(c1)CCN2c1ncc2c(n1)n(C1CCOCC1)c(=O)n2C | 32.6
40 |  | 0.0373 | Cc1cc(-c2cnn(C)c2)ncc1Nc1ncc2c(n1)n([C@@]13C[C@@H]4C[C@@](C)(C[C@@](C)(C4)C1)C3)c(=O)n2C | 83.9
41 |  | 0.235 | Cc1cc(-c2coc(C=O)c2)ncc1Nc1ncc2c(n1)n(C1CCOCC1)c(=O)n2C | 96.9
42 |  | 0.642 | Cc1ccc(-c2cc(C)c(Nc3ncc4c(n3)n(C3CCOCC3)c(=O)n4C)cn2)o1 | 76.7
43 | 6 | 0.138 | COc1ccc2c(c1)CCN2c1ncc2c(n1)n(C1CCOCC1)c(=O)n2C | 86.1
44 | 10 |  | Cc1ncc(-c2cnn(C)c2)cc1Nc1ncc2c(n1)n(C1CCOCC1)c(=O)n2C | 74.3
45 |  | 1.2 | Cn1c(=O)n(C2CCOCC2)c2nc(N3CCc4ccccc43)ncc21 | -11.6
46 | 6 | 128 | Cc1cc(-c2cn(C)nc2C)ncc1Nc1ncc2c(n1)n(C1CCOCC1)c(=O)n2C | 77.4
47 | 5 |  | COC(=O)c1ccc2c(c1)CCN2c1ncc2c(n1)n(C1CCOCC1)c(=O)n2C | 48.1
48 | 161 |  | COc1ccc(-c2ccc(Nc3ncc4c(n3)n(C3CCOCC3)c(=O)n4C)c(C)n2)cn1 | 29.9
49 | 0.9 |  | Cc1cc(-c2cnn(C)c2)ncc1Nc1ncc2c(n1)n(C1CCNCC1)c(=O)n2C | 46.8
50 | 9 |  | Cc1cc(-c2cnn(C)c2)ncc1Nc1ncc2c(n1)n(C1CCCCC1C)c(=O)n2C (stereo not given) | 86.7
51 | 13 | 0.352 | Cn1c(=O)n(C2CCOCC2)c2nc(N3CCc4cc(C#N)ccc43)ncc21 | 84.7
52 | 5 |  | Cc1cc(-c2cnn(C)c2)ncc1Nc1ncc2c(n1)n(C1CCN(S(=O)(=O)C(F)(F)F)CC1)c(=O)n2C | 86.7
53 | 5.3 |  | COc1cncc(-c2ccc(Nc3ncc4c(n3)n(C3CCOCC3)c(=O)n4C)c(C)n2)c1 | 
54 | 3 |  | Cc1cc(-c2cnn(C)c2)ncc1Nc1ncc2c(n1)n(C1CCN(C(=O)C3CC3)CC1)c(=O)n2C | 66.9
55 | 13 |  | Cc1cc(-c2ncn(C)n2)ccc1Nc1ncc2c(n1)n(C1CCOCC1)c(=O)n2C | 56.1
